The source of these data is PubChem BioAssay AID1919001 (Molecular Pharmacology Branch, DTP, NCI, 2023).
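Further: compound exposure lasted 7 days after spheroids had grown for 3 days.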

The subject of one experiment is 699152-130-R-J1-PDC complex spheroid growth. Nature of the experiment: Anticancer human tumor 699152-130-R-J1-PDC patient-derived pancreatic carcinoma cell line growth inhibition [AhR]. The note with it: second compound 0.1 µM; first compound 0.316 µM; active compounds read low. Put shortly: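 Spheroids combined tumor cells with HUVEC endothelial cells and human MSCs as stroma. AhR antagonists were paired with standard or investigational drugs, each dosed in half-log steps down from near clinical Cmax, or from 10 microM where Cmax was unknown.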
As for `O=C(C=Cc1cccc(S(=O)(=O)Nc2ccccc2)c1)NO` + Cc1cncc(-c2nc(NCCc3c[nH]c4ccccc34)c3ncn(C(C)C)c3n2)c1, the viability, T/C is 102%.
With `CC1COCCN1c1cc(C2(S(C)(=N)=O)CC2)nc(-c2ccnc3[nH]ccc23)n1` (configuration not stated) + CC(CO)NC(=O)c1cc(-c2ccc(Cl)cc2)nn(-c2cnn(C)c2)c1=O, the viability, T/C was 88.7%.
Same read-out and setting: then `COc1cc(Nc2ncc3c(n2)-c2ccc(Cl)cc2C(c2c(F)cccc2OC)=NC3)ccc1C(=O)O` + Cc1cncc(-c2nc(NCCc3c[nH]c4ccccc34)c3ncn(C(C)C)c3n2)c1, with 73.4%.

The experiment is the same for the next values; noted with them: second compound 0.1 µM; first compound 1 µM; active compounds read low.
In the case of `COc1ccc([C@@H](O)c2cc(-c3ncnc4cc(N5CCOCC5)ccc34)c(F)cc2Cl)nn1` + CC(CO)NC(=O)c1cc(-c2ccc(Cl)cc2)nn(-c2cnn(C)c2)c1=O, the viability, T/C was 78.6%.
Still for that read-out and setting: the result for `O=C(C=Cc1cccc(S(=O)(=O)Nc2ccccc2)c1)NO` + Cc1cncc(-c2nc(NCCc3c[nH]c4ccccc34)c3ncn(C(C)C)c3n2)c1 reads 117%; that for `CC1COCCN1c1cc(C2(S(C)(=N)=O)CC2)nc(-c2ccnc3[nH]ccc23)n1` (configuration not stated) + CC(CO)NC(=O)c1cc(-c2ccc(Cl)cc2)nn(-c2cnn(C)c2)c1=O, 94.5%; that for `COc1cc(Nc2ncc3c(n2)-c2ccc(Cl)cc2C(c2c(F)cccc2OC)=NC3)ccc1C(=O)O` + Cc1cncc(-c2nc(NCCc3c[nH]c4ccccc34)c3ncn(C(C)C)c3n2)c1, 56.5%.

The same experiment, now with this note: second compound 0.1 µM; first compound 3.16 µM; active compounds read low.
Regarding `COc1ccc([C@@H](O)c2cc(-c3ncnc4cc(N5CCOCC5)ccc34)c(F)cc2Cl)nn1` + CC(CO)NC(=O)c1cc(-c2ccc(Cl)cc2)nn(-c2cnn(C)c2)c1=O, the viability, T/C was 52.5%.
Same read-out and setting: the result for `O=C(C=Cc1cccc(S(=O)(=O)Nc2ccccc2)c1)NO` + Cc1cncc(-c2nc(NCCc3c[nH]c4ccccc34)c3ncn(C(C)C)c3n2)c1 reads 98.8%; that for `CC1COCCN1c1cc(C2(S(C)(=N)=O)CC2)nc(-c2ccnc3[nH]ccc23)n1` (configuration not stated) + CC(CO)NC(=O)c1cc(-c2ccc(Cl)cc2)nn(-c2cnn(C)c2)c1=O, 79.2%; that for `COc1cc(Nc2ncc3c(n2)-c2ccc(Cl)cc2C(c2c(F)cccc2OC)=NC3)ccc1C(=O)O` + Cc1cncc(-c2nc(NCCc3c[nH]c4ccccc34)c3ncn(C(C)C)c3n2)c1, 56.1%.

Still in this experiment, the particulars now being: second compound 0.1 µM; first compound 10 µM; active compounds read low.
For the molecule `COc1ccc([C@@H](O)c2cc(-c3ncnc4cc(N5CCOCC5)ccc34)c(F)cc2Cl)nn1` + CC(CO)NC(=O)c1cc(-c2ccc(Cl)cc2)nn(-c2cnn(C)c2)c1=O, the viability, T/C was 33.1%.
Still for that read-out and setting: then `O=C(C=Cc1cccc(S(=O)(=O)Nc2ccccc2)c1)NO` + Cc1cncc(-c2nc(NCCc3c[nH]c4ccccc34)c3ncn(C(C)C)c3n2)c1, with 91.3%; and `CC1COCCN1c1cc(C2(S(C)(=N)=O)CC2)nc(-c2ccnc3[nH]ccc23)n1` (configuration not stated) + CC(CO)NC(=O)c1cc(-c2ccc(Cl)cc2)nn(-c2cnn(C)c2)c1=O, with 74.6%.
On the same count and under the same terms, the result for `COc1cc(Nc2ncc3c(n2)-c2ccc(Cl)cc2C(c2c(F)cccc2OC)=NC3)ccc1C(=O)O` + Cc1cncc(-c2nc(NCCc3c[nH]c4ccccc34)c3ncn(C(C)C)c3n2)c1 reads 57.1%.

Staying with this experiment, now noted: second compound 0.316 µM; first compound 0.0316 µM; active compounds read low.
Take `COc1ccc([C@@H](O)c2cc(-c3ncnc4cc(N5CCOCC5)ccc34)c(F)cc2Cl)nn1` + CC(CO)NC(=O)c1cc(-c2ccc(Cl)cc2)nn(-c2cnn(C)c2)c1=O: the viability, T/C was 93.5%.
Turning to `O=C(C=Cc1cccc(S(=O)(=O)Nc2ccccc2)c1)NO` + Cc1cncc(-c2nc(NCCc3c[nH]c4ccccc34)c3ncn(C(C)C)c3n2)c1, the viability, T/C is 114%.
On the same count and under the same terms, the result for `CC1COCCN1c1cc(C2(S(C)(=N)=O)CC2)nc(-c2ccnc3[nH]ccc23)n1` (configuration not stated) + CC(CO)NC(=O)c1cc(-c2ccc(Cl)cc2)nn(-c2cnn(C)c2)c1=O reads 108%.
The same measure, in the same setting: the result for `COc1cc(Nc2ncc3c(n2)-c2ccc(Cl)cc2C(c2c(F)cccc2OC)=NC3)ccc1C(=O)O` + Cc1cncc(-c2nc(NCCc3c[nH]c4ccccc34)c3ncn(C(C)C)c3n2)c1 reads 76.2%.

Staying with this experiment, now noted: second compound 0.316 µM; first compound 0.1 µM; active compounds read low.
In the case of `COc1ccc([C@@H](O)c2cc(-c3ncnc4cc(N5CCOCC5)ccc34)c(F)cc2Cl)nn1` + CC(CO)NC(=O)c1cc(-c2ccc(Cl)cc2)nn(-c2cnn(C)c2)c1=O, the viability, T/C is 90.2%.
On the same count and under the same terms, the result for `O=C(C=Cc1cccc(S(=O)(=O)Nc2ccccc2)c1)NO` + Cc1cncc(-c2nc(NCCc3c[nH]c4ccccc34)c3ncn(C(C)C)c3n2)c1 reads 96%; that for `CC1COCCN1c1cc(C2(S(C)(=N)=O)CC2)nc(-c2ccnc3[nH]ccc23)n1` (configuration not stated) + CC(CO)NC(=O)c1cc(-c2ccc(Cl)cc2)nn(-c2cnn(C)c2)c1=O, 94.2%; that for `COc1cc(Nc2ncc3c(n2)-c2ccc(Cl)cc2C(c2c(F)cccc2OC)=NC3)ccc1C(=O)O` + Cc1cncc(-c2nc(NCCc3c[nH]c4ccccc34)c3ncn(C(C)C)c3n2)c1, 81%.

The experiment is the same for the next values; noted with them: second compound 0.316 µM; first compound 0.316 µM; active compounds read low.
Regarding `COc1ccc([C@@H](O)c2cc(-c3ncnc4cc(N5CCOCC5)ccc34)c(F)cc2Cl)nn1` + CC(CO)NC(=O)c1cc(-c2ccc(Cl)cc2)nn(-c2cnn(C)c2)c1=O, the viability, T/C was 91.9%.
The same measure, in the same setting: then `O=C(C=Cc1cccc(S(=O)(=O)Nc2ccccc2)c1)NO` + Cc1cncc(-c2nc(NCCc3c[nH]c4ccccc34)c3ncn(C(C)C)c3n2)c1, with 101%; and `CC1COCCN1c1cc(C2(S(C)(=N)=O)CC2)nc(-c2ccnc3[nH]ccc23)n1` (configuration not stated) + CC(CO)NC(=O)c1cc(-c2ccc(Cl)cc2)nn(-c2cnn(C)c2)c1=O, with 101%.
`COc1cc(Nc2ncc3c(n2)-c2ccc(Cl)cc2C(c2c(F)cccc2OC)=NC3)ccc1C(=O)O` + Cc1cncc(-c2nc(NCCc3c[nH]c4ccccc34)c3ncn(C(C)C)c3n2)c1: the viability, T/C is 72.4%.

Staying with this experiment, now noted: second compound 0.316 µM; first compound 1 µM; active compounds read low.
Consider `COc1ccc([C@@H](O)c2cc(-c3ncnc4cc(N5CCOCC5)ccc34)c(F)cc2Cl)nn1` + CC(CO)NC(=O)c1cc(-c2ccc(Cl)cc2)nn(-c2cnn(C)c2)c1=O, for which the viability, T/C was 74.3%.
On the same count and under the same terms, then `O=C(C=Cc1cccc(S(=O)(=O)Nc2ccccc2)c1)NO` + Cc1cncc(-c2nc(NCCc3c[nH]c4ccccc34)c3ncn(C(C)C)c3n2)c1, with 112%; and `CC1COCCN1c1cc(C2(S(C)(=N)=O)CC2)nc(-c2ccnc3[nH]ccc23)n1` (configuration not stated) + CC(CO)NC(=O)c1cc(-c2ccc(Cl)cc2)nn(-c2cnn(C)c2)c1=O, with 85.8%.
Turning to `COc1cc(Nc2ncc3c(n2)-c2ccc(Cl)cc2C(c2c(F)cccc2OC)=NC3)ccc1C(=O)O` + Cc1cncc(-c2nc(NCCc3c[nH]c4ccccc34)c3ncn(C(C)C)c3n2)c1, the viability, T/C is 59.8%.

Staying with this experiment, now noted: second compound 0.316 µM; first compound 3.16 µM; active compounds read low.
Take `COc1ccc([C@@H](O)c2cc(-c3ncnc4cc(N5CCOCC5)ccc34)c(F)cc2Cl)nn1` + CC(CO)NC(=O)c1cc(-c2ccc(Cl)cc2)nn(-c2cnn(C)c2)c1=O: the viability, T/C is 61.5%.
Still for that read-out and setting: the result for `O=C(C=Cc1cccc(S(=O)(=O)Nc2ccccc2)c1)NO` + Cc1cncc(-c2nc(NCCc3c[nH]c4ccccc34)c3ncn(C(C)C)c3n2)c1 reads 101%; that for `CC1COCCN1c1cc(C2(S(C)(=N)=O)CC2)nc(-c2ccnc3[nH]ccc23)n1` (configuration not stated) + CC(CO)NC(=O)c1cc(-c2ccc(Cl)cc2)nn(-c2cnn(C)c2)c1=O, 85.5%.
`COc1cc(Nc2ncc3c(n2)-c2ccc(Cl)cc2C(c2c(F)cccc2OC)=NC3)ccc1C(=O)O` + Cc1cncc(-c2nc(NCCc3c[nH]c4ccccc34)c3ncn(C(C)C)c3n2)c1: the viability, T/C was 55.9%.

The experiment is the same for the next values; noted with them: second compound 0.316 µM; first compound 10 µM; active compounds read low.
Consider `COc1ccc([C@@H](O)c2cc(-c3ncnc4cc(N5CCOCC5)ccc34)c(F)cc2Cl)nn1` + CC(CO)NC(=O)c1cc(-c2ccc(Cl)cc2)nn(-c2cnn(C)c2)c1=O, for which the viability, T/C is 32.1%.
As for `O=C(C=Cc1cccc(S(=O)(=O)Nc2ccccc2)c1)NO` + Cc1cncc(-c2nc(NCCc3c[nH]c4ccccc34)c3ncn(C(C)C)c3n2)c1, the viability, T/C was 82.8%.

The viability, T/C is the ratio of treated to control.
